PMC3189276 (2011)

Molecular target: human cannabinoid receptor 2 (hCB2R) (Homo sapiens, UniProt P34972)
Type: binding

Sequence of human cannabinoid receptor 2 (hCB2R) (P34972 whole entry): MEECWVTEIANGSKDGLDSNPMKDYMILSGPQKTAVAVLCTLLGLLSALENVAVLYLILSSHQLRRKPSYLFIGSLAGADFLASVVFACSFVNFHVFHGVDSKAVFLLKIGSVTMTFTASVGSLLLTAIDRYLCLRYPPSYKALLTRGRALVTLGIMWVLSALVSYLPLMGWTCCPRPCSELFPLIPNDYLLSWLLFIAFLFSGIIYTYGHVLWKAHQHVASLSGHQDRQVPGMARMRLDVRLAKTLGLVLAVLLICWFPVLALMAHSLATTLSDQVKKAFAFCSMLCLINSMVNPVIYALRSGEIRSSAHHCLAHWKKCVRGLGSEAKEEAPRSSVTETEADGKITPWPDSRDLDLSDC

## CC(C)(CCCCCCN=C=S)c1cc(O)c2c(c1)OC(C)(C)[C@H]1CC[C@@H](CO)C[C@@H]21 [AM-841]
  % (TMH6 covalently modified): ~ 75 % (TMH6 covalently modified)
